{"source": "patent US20160157483A1", "about": "“COMPOSITION FOR THE CLEANING AND PROTECTION OF TECHNICAL SURFACES” (aimecs GmbH, priority 2013, published 2016)", "key": {"Staphylococcus aureus [1]": {"tested_on": "Staphylococcus aureus", "test": "Soaked filter paper on agar plates with S. aureus, inhibition zone", "assay_type": "cell-based", "details": "24 hours at 37° C., compared with EtAc control", "experimental": "The experiment was repeated with filter paper which was soaked with pure totarol, with microparticles loaded with totarol and with EtAc, and which was incubated on agar plates, onto which S. aureus was cultivated."}, "human cells": {"tested_on": "human cells", "details": "cited from earlier work"}, "Staphylococcus aureus [2]": {"tested_on": "Staphylococcus aureus", "test": "Growth of S. aureus in suspension, optical density at 600 nm", "assay_type": "cell-based", "details": "dissolved in ethyl acetate, 6 hours of incubation", "experimental": "The antibacterial effect on Staphylococcus aureus (S. aureus) of totarol and the microparticles loaded with totarol was tested in vitro in a further experiment. It was shown that a concentration of 0.1 mg/ml of totarol dissolved in ethyl acetate (EtAc) was sufficient to inhibit the growth of S. aureus in suspension after 6 hours of incubation."}, "bacteria": {"tested_on": "bacteria", "details": "in vitro; cited from earlier work"}, "[3]": {"tested_on": "multi-resistant Staphylococcus aureus (MRSA)", "details": "cited from earlier work"}, "Staphylococcus aureus [4]": {"tested_on": "Staphylococcus aureus", "test": "S. aureus seeded onto agar plates, inhibition zone", "assay_type": "cell-based", "details": "1 mg pure totarol or 10 mg microparticles loaded with about 1 mg totarol, 24 hours at 37° C.", "experimental": "In further experiments the S. aureus bacteria were seeded onto agar plates and treated with 1 mg of pure totarol, 10 mg of unloaded microparticles, and 10 mg of microparticles loaded with about 1 mg of totarol."}, "Streptococcus gordonii": {"tested_on": "Streptococcus gordonii", "test": "Antibacterial effect against Streptococcus gordonii, growth by change of optical density", "assay_type": "cell-based", "details": "5 mg in 6 well plates, 0 h vs 24 h, starting density 1.8; P/S 4%", "experimental": "The microparticles loaded with totarol were then tested for their antibacterial effect against Streptococcus gordonii (S.G.). For this purpose, 5 mg of totarol-loaded microparticles were given into 6 well plates and covered with a solution of S.G. For comparison, 5 mg of unloaded microparticles, 5 mg of free totarol, pure medium (Schaedler Medium of the company BD), medium with S.G. and medium with S.G. and 4% P/S (penicillin streptomycin) as positive control were measured. By means of the change of the optical density the growth of S.G. was determined. The starting density of S.G. was 1.8. In FIG. 3 the measured results at zero hour (left columns) and after 24 hours (right columns) is shown."}, "fresh human whole blood": {"tested_on": "fresh human whole blood", "test": "Hemocompatibility in whole blood according to ISO 10993-4", "assay_type": "cell-based", "details": "1 hour", "experimental": "Finally in vitro tests were performed where totarol and microparticles loaded with totarol were brought into contact with whole blood. The effect on erythrozytes, platelets, leucozytes as well as the complement and coagulation cascade was examined.\nThe measurements were made according ISO 10993-4, in determining various markers with a central importance within the hemostatic system.\nShown are the means values and standard deviations (n=3).\nShown are the mean values and standard deviations (n=3)."}}, "data": [{"compound": "CC(C)c1c(O)ccc2c1CC[C@H]1C(C)(C)CCC[C@]21C", "note": "[totarol, (4bS,8aS)-4b,8,8-Trimethyl-1-propan-2-yl-5,6,7,8a,9,10-hexahydrophenanthren-2-ol]", "values": [{"measurement": "inhibition zone around the filter paper", "setting": "Staphylococcus aureus [1]", "result": "clear inhibition zone"}, {"measurement": "concentration at which toxic and inhibits the growth of human cells", "setting": "human cells", "result": "more than 5 μg/ml"}, {"measurement": "concentration sufficient to inhibit the growth of S. aureus in suspension", "setting": "Staphylococcus aureus [2]", "result": 0.1, "unit": "mg/mL"}, {"measurement": "minimum concentration where totarol still has an antibacterial effect", "setting": "bacteria", "result": 2, "unit": "µg/mL"}, {"measurement": "effectiveness against MRSA", "setting": "[3]", "result": "effective"}, {"measurement": "inhibition zone on agar plates", "setting": "Staphylococcus aureus [4]", "result": "clear inhibition zone"}, {"measurement": "reduction of the bacterial concentration (growth of S.G. by optical density)", "setting": "Streptococcus gordonii", "result": "stronger reduction of the bacterial concentration than totarol-loaded microparticles"}, {"measurement": "effects on the hemostatic system", "setting": "fresh human whole blood; 0.1 mg/ml totarol, 1 mg/ml totarol MP, vs control and unloaded microparticles", "result": "neither totarol nor the microparticles loaded with totarol have negative effects"}, {"measurement": "hemocompatibility", "setting": "fresh human whole blood; blood contact", "result": "good hemocompatibility"}]}]}
